Like-named read-outs stand apart in the source and are kept apart here.
Tests used:
[1] = biological target: T1, VIM-2 (Escherichia coli, UniProt Q5U7L7)
T1 construct: Li's Laboratory, Sichuan University (collaborator, a gift and not a purchase)

[2] = biological target: T2, IMP-1 (Serratia marcescens, UniProt P52699); details: Figure 1, reported inhibitors; read-out: IMP-1 IC50 (reported MBL inhibitors); cited from earlier work
T2 construct: Li's Laboratory, Sichuan University (collaborator, a gift and not a purchase)

[3] = tested on: CfiA; details: Figure 1, reported natural product; read-out: CfiA IC50 (reported MBL inhibitors); cited from earlier work
[4] = biological target: T1, VIM-2; assay: VIM-2 inhibition assay (FC5 fluorogenic substrate); format: biochemical; details: for IC50: 10 concentrations in threefold dilution, triplicate, read-out: IC50 against VIM-2; for inhibition at 10 µM / inhibition at 100 µM: mean ± SD (n = 3)
Procedure: (§1) All the target compounds were freshly prepared in 100 mM DMSO stock solutions. All the MBL and SBL enzymes used in this study were obtained from our collaborator, Li’s Laboratory in Sichuan University. Each compound was initially evaluated for inhibitory activity to MBL and SBL enzymes at 100 and 10 μM, by preincubation with the appropriate amount of enzymes in the assay buffer for 10 min, followed by adding the substrate FC5 to initiate the reactions, and monitoring the fluorescence at λex of 380 nm and λem of 460 nm. The IC50 values for the compounds (with 10 different concentrations in threefold dilution) were further determined. All determinations were tested in triplicate. The IC50 values were obtained from the plot of activity versus inhibitor concentration by using the GraphPad Prism software.

[5] = biological target: T3, NDM-1 (Klebsiella pneumoniae, UniProt C7C422); assay: NDM-1 inhibition assay (FC5 fluorogenic substrate); format: biochemical; details: mean ± SD (n = 3)
T3 construct: Li's Laboratory, Sichuan University (collaborator, a gift and not a purchase)
Procedure: (§2) Then, we tested all the target compounds against other B1 MBL enzymes, including NDM-1, IMP-1, VIM-1, and VIM-5 (Table 1); all the assay conditions (including enzyme/substrate concentrations) are the same as that previously used. […]. […].
as §1

[6] = biological target: T4, VIM-1 (Pseudomonas aeruginosa, UniProt A0A0F7KYQ8); assay: VIM-1 inhibition assay (FC5 fluorogenic substrate); format: biochemical; details: @ 100 μM; mean ± SD (n = 3)
T4 construct: Li's Laboratory, Sichuan University (collaborator, a gift and not a purchase)
Procedure: as §2, §1

[7] = tested on: VIM-5; assay: VIM-5 inhibition assay (FC5 fluorogenic substrate); format: biochemical; details: @ 100 μM; mean ± SD (n = 3)
Procedure: as §2, §1

[8] = biological target: T5, KPC-2 (Klebsiella pneumoniae, UniProt Q9F663); assay: KPC-2 SBL inhibition assay (counter screen); format: biochemical; details: mean ± SD (n = 3)
T5 construct: Li's Laboratory, Sichuan University (collaborator, a gift and not a purchase)
Procedure: (§3) Considering that MBLs and SBLs are two catalogs of β-lactamases, we further tested the compound 5l against some representative SBL enzymes, including KPC-2 (Klebsiella pneumoniae carbapenemase 2), TEM-1, AmpC, and OXA-48 (Oxacillinase 48), with the aim of investigating its selectivity; particularly, this is used as a counter screening to indicate the specific inhibition to MBLs. […] […].
as §1

[9] = biological target: T6, TEM-1 (Escherichia coli, UniProt P62593); assay: TEM-1 SBL inhibition assay (counter screen); format: biochemical; details: mean ± SD (n = 3)
T6 construct: Li's Laboratory, Sichuan University (collaborator, a gift and not a purchase)
Procedure: (§4) Considering that MBLs and SBLs are two catalogs of β-lactamases, we further tested the compound 5l against some representative SBL enzymes, including KPC-2 (Klebsiella pneumoniae carbapenemase 2), TEM-1, AmpC, and OXA-48 (Oxacillinase 48), with the aim of investigating its selectivity; particularly, this is used as a counter screening to indicate the specific inhibition to MBLs.
as §1

[10] = tested on: AmpC; assay: AmpC SBL inhibition assay (counter screen); format: biochemical; details: 10 μM; mean ± SD (n = 3)
Procedure: as §4, §1

[11] = biological target: T7, OXA-48 (Klebsiella pneumoniae, UniProt Q6XEC0); assay: OXA-48 SBL inhibition assay (counter screen); format: biochemical
T7 construct: Li's Laboratory, Sichuan University (collaborator, a gift and not a purchase)
Procedure: as §3, §1

[12] = tested on: B3 L1 MBL; parameters: method as in PMID 17999929, PMID 20625539, PMID 25893049; details: Figure 1, reported inhibitor; read-out: L1 IC50 (reported MBL inhibitors); cited from earlier work
[13] = biological target: T2, IMP-1; assay: IMP-1 inhibition assay (FC5 fluorogenic substrate); format: biochemical; details: mean ± SD (n = 3)
Procedure: as §2, §1

[14] = biological target: T3, NDM-1; details: Figure 1, reported inhibitors; read-out: NDM-1 IC50 (reported MBL inhibitors); cited from earlier work
[15] = Figure 1, reported inhibitors; read-out: VIM-2 IC50 (reported MBL inhibitors); cited from earlier work

T2 sequence (P52699 19-246 limits assumed): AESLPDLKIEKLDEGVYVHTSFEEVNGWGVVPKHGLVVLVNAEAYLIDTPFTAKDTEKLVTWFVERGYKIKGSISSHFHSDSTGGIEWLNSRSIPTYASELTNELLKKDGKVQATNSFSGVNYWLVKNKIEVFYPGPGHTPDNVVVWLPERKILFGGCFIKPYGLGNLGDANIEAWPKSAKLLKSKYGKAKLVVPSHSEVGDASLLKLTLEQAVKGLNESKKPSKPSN
T6 sequence (P62593 24-286 limits assumed): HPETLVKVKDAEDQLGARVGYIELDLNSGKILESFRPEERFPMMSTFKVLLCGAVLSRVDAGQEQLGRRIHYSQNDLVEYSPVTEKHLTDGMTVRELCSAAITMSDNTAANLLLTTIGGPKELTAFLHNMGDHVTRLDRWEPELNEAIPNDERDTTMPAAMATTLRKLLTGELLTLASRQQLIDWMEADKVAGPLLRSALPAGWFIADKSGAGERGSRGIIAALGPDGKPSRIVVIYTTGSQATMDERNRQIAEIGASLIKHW
T3 sequence (C7C422 29-270, looked up, species assumed): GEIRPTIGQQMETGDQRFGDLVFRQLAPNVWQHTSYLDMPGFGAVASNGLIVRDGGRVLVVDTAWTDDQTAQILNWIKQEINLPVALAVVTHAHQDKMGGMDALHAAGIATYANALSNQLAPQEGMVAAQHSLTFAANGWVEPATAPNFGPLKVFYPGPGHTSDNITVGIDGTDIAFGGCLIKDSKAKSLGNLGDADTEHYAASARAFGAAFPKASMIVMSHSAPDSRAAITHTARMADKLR
T7 sequence (Q6XEC0 23-265 limits assumed): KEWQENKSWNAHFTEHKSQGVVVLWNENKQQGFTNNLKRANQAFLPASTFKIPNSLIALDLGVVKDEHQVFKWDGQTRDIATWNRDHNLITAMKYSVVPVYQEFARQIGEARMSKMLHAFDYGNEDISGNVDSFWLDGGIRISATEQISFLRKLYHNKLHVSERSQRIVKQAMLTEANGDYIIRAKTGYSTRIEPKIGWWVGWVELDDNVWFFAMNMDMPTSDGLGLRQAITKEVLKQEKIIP
T5 sequence (Q9F663 25-293, looked up): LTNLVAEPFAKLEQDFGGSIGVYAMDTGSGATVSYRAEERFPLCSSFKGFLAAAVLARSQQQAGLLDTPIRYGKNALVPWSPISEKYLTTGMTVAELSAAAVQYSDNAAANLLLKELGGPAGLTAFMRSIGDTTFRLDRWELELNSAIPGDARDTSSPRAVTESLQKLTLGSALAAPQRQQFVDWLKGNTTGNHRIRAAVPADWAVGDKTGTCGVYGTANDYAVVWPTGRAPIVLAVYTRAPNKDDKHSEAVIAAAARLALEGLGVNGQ

O=C(CSc1nnc(-c2ccccc2C(=O)O)[nH]1)Nc1nc2ccccc2s1 [IV]
Ki ([1]; Figure 1, reported inhibitor; read-out: VIM-2 Ki (reported MBL inhibitors); cited from earlier work): 1.2 µM

O=C(/C=C/c1ccc(O)c(O)c1)O[C@H](Cc1ccc(O)c(O)c1)C(=O)O [XII, Rosmarinic acid]
IC50 ([1]; read-out: VIM-2 IC50 (reported MBL inhibitors); Figure 1, reported inhibitors; cited from earlier work): 41.5 µM

CO[C@@H]1O[C@@H](C)Cc2oc3cc(O)c(O)c(C(=O)O)c3c(=O)c21 [X]
IC50 [2]: 113 µM
IC50 [3]: 29 µM

NCCN[C@H]1CC[C@H](CC(=O)N[C@H]2Cc3cccc(C(=O)O)c3OB2O)CC1 [IX, taniborbactam]
IC50 [1, 15]: 0.0005 µM

Brc1ccc(-c2nnc3n2CCCS3)cc1 [5l, 3-(4-Bromophenyl)-6,7-dihydro-5H-[1,2,4]triazolo[3,4-b][1,3]thiazine]
IC50 [4]: 38.4 µM
inhibition at 10 µM [4]: 53%
inhibition at 100 µM [4]: 86 ± 5%
inhibition at 10 µM [5]: 10%
inhibition at 100 µM [5]: 8 ± 1%
inhibition at 100 µM [6]: 23 ± 1%
Inhibition % VIM-5 [7]: 33 ± 2/– %
inhibition at 10 µM ([8]; 10 μM): 2 ± 1%
Inhibition % KPC-2 ([8]; 100 μM): No or low inhibitory activities
inhibition at 100 µM ([8]; 100 μM): 8 ± 2%
inhibition at 10 µM ([9]; 10 μM): 9 ± 1%
Inhibition % TEM-1 ([9]; 100 μM): No or low inhibitory activities
inhibition at 100 µM ([9]; 100 μM): 20 ± 3%
Inhibition % AmpC [10]: 13 ± 2%
Inhibition % OXA-48 ([11]; 100 μM, mean ± SD (n = 3)): No or low inhibitory activities
inhibition at 10 µM ([11]; read-out: Inhibition % OXA-48): 7 ± 1%
inhibition at 100 µM ([11]; read-out: Inhibition % OXA-48): 17 ± 2%

Cc1ccccc1-c1nnc(S)n1/N=C/c1ccccc1C(=O)O [V]
IC50 [12]: 15 µM

Fc1cccc(-c2nnc3n2CCCS3)c1 [5e, 3-(3-Fluorophenyl)-6,7-dihydro-5H-[1,2,4]triazolo[3,4-b][1,3]thiazine]
inhibition at 10 µM [4]: 15%
inhibition at 100 µM [4]: 34 ± 3%
inhibition at 10 µM [5]: 20%
inhibition at 100 µM [5]: 10 ± 2%
inhibition at 10 µM [13]: 4%
inhibition at 100 µM [13]: 8 ± 1%
inhibition at 100 µM [6]: 22 ± 3%
Inhibition % VIM-5 [7]: 6 ± 1/– %

O=C(O)c1ccccc1-c1nnc2n1CCCS2 [compound 14, 2-(6,7-Dihydro-5H-[1,2,4]triazolo[3,4-b][1,3]thiazin-3-yl)benzoic acid]
inhibition at 10 µM [4]: 21%
inhibition at 100 µM [4]: 26 ± 2%
inhibition at 10 µM [5]: 10%
inhibition at 100 µM [5]: 7 ± 1%
inhibition at 10 µM [13]: 18%
inhibition at 100 µM [13]: 15 ± 2%
inhibition at 100 µM [6]: 22 ± 3%
Inhibition % VIM-5 [7]: 11 ± 1/– %

Fc1ccc(-c2nnc3n2CCCS3)cc1 [5j, 3-(4-Fluorophenyl)-6,7-dihydro-5H-[1,2,4]triazolo[3,4-b][1,3]thiazine]
inhibition at 10 µM [4]: 32%
inhibition at 100 µM [4]: 34 ± 3%
inhibition at 10 µM [5]: 23 ± 2%
inhibition at 100 µM [5]: 23 ± 2%
inhibition at 10 µM [13]: 13%
inhibition at 100 µM [13]: 8 ± 1%
inhibition at 100 µM [6]: 27 ± 1%
Inhibition % VIM-5 [7]: 14 ± 1/– %

C[C@H](CS)C(=O)N[C@@H](Cc1coc2ccccc12)B(O)O [III]
IC50 [1, 15]: 0.44 µM
IC50 [14]: 37.9 µM

Brc1ccc(-c2nnc3n2CCS3)cc1 [5s, 3-(4-Bromophenyl)-5,6-dihydrothiazolo[2,3-c][1,2,4]triazole]
IC50 [4]: 67.2 µM
inhibition at 10 µM [4]: 50%
inhibition at 100 µM [4]: 80 ± 3%
inhibition at 10 µM [5]: 29%
inhibition at 100 µM [5]: 28 ± 3%
inhibition at 10 µM [13]: 9%
inhibition at 100 µM [13]: 4 ± 1%
inhibition at 100 µM [6]: 29 ± 2%
Inhibition % VIM-5 [7]: 14 ± 2/– %

N[C@@H](CN[C@@H](CN[C@@H](CC(=O)O)C(=O)O)C(=O)O)C(=O)O [XI, AMA]
IC50 [1, 15]: 9.6 µM
IC50 [14]: 4 µM

C[C@H](CS)C(=O)N[C@@H](C(=O)O)c1ccc(O)cc1 [II]
IC50 [1, 15]: 0.0137 µM
IC50 [14]: 3.57 µM

Cc1ccccc1-c1nnc2n1CCCS2 [5b, 3-(O-Tolyl)-6,7-dihydro-5H-[1,2,4]triazolo[3,4-b][1,3]thiazine]
inhibition at 10 µM [4]: 34%
inhibition at 100 µM [4]: 45 ± 5%
inhibition at 10 µM [5]: 27%
inhibition at 100 µM [5]: 32 ± 4%
inhibition at 10 µM [13]: 21%
inhibition at 100 µM [13]: 25 ± 1%
inhibition at 100 µM [6]: 21 ± 3%
Inhibition % VIM-5 [7]: 12 ± 2/– %
